Assay results from patent publication US20210163443A1, “Febrifugine Derivatives” (BRISTOL-MYERS SQUIBB COMPANY, priority 2019, published 2021).
pIC50: −log10 of the molar value. Where a name gives a salt, the structure may show the parent alone.

Biological target: T1, human ProRS (prolyl tRNA synthetase moiety of glutamyl prolyl tRNA synthetase, EPRS) (Homo sapiens, UniProt P07814)
T1 construct: The prolyl tRNA synthetase moiety (ProRS) in the cDNA of glutamyl prolyl tRNA synthetase was subcloned; 6xHis (N, cleaved yes); made in house; host or cells: E. coli BL21 (DE3)
T1 sequence (P07814 1007-1512 limits assumed): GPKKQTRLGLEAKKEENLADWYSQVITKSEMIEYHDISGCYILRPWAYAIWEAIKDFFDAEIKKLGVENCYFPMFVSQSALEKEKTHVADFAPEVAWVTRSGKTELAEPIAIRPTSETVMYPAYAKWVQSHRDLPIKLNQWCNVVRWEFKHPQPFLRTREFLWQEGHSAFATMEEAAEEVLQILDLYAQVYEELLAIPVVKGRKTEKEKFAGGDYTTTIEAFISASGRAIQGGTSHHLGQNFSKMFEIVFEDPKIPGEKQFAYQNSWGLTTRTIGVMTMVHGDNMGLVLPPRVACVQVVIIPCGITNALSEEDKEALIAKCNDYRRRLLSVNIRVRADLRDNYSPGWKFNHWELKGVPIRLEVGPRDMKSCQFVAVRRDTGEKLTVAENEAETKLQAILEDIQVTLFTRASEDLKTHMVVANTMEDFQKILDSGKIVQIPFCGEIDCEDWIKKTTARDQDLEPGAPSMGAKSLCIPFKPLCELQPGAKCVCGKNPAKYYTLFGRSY
Assay: Assay for inhibitors of prolyl tRNA synthetase activity (ProRS assay, labeled proline incorporation)
Assay type: biochemical
Conditions: human ProRS 20 nM, 10 min at 37° C.; read-out: EPRS IC50
Description: In order to establish the activities of the compounds highlighted above, we determined extent of inhibition of prolyl tRNA synthetase activity in dose response curves to obtain IC50 values.
The prolyl tRNA synthetase moiety (ProRS) in the cDNA of glutamyl prolyl tRNA synthetase was subcloned, tagged with a single biotin, purified and used in the assay.
Briefly, human ProRS with a 6×N-terminal His tag in pET28N with TVMV BioP was transformed in E. coli BL21 (DE3) cells, selected, overexpressed and purified using a Ni Seph 6 FF XK 16/20 column in the first stage. Ni-NTA eluates were pooled and treated with TVMV protease, and biotinylated using d-Biotin, MgCl2, ATP and the BirA enzyme. This was rerun through a Ni column as before. The eluates were further enriched and purified using membrane ultrafiltration and a SuperDex 200 XK 16/60 column, and peak fractions were confirmed by SDS-PAGE prior to protein amount determination, aliquoting and storage at −80° C. • ProRS assay was performed in 96 well plates in a final reaction volume of 20 μl, using staggered additions of Tris-Cl (pH 7.5, 60 mM), dithiothreitol (2 mM), ATP (5 mM, pH 7.0), MgCl2 6 mM), ProRS (20 nM, with pre-determined active fraction range) and bovine tRNA (20 μg). Controls and compounds, at various concentrations (10 μM to 0.5 nM), were incubated on ice with enzyme mix for 15 min followed by addition of proline (non-labeled and labeled, 3.96 and 1.04 μM (1 μCi) respectively) to initiate the reaction. Reaction was carried out for 10 min at 37° C. and terminated by addition of TCA (10%, 100 μl). Reaction mix was collected on a Whatman GF/B filter using a vacuum filtration manifold. This filter was washed 3 times with 5% TCA followed by 2 washes with ethanol, air dried, and read using a liquid scintillation counter (TopCount NXT) using MicroScint O. IC50 values were calculated and analyzed using ToolSet (4-parameter plot) and depicted herein.

3-{(S)-2-hydroxy-3-[(2R,3S)-3-hydroxypiperidin-2-yl]propyl}-8-methyl-6-(1-methyl-1H-pyrazol-3-yl)quinazolin-4(3H)-one hydrochloride [Example 71]
pIC50: 5.38

Cc1cc(Cl)cc2c(=O)n(CC(=O)C[C@H]3NCCC[C@@H]3O)cnc12 [Example 1, 6-Chloro-3-{3-[(2R,3S)-3-hydroxypiperidin-2-yl]-2-oxopropyl}-8-methylquinazolin-4(3H)-one hydrochloride]
pIC50: 7.14

Cc1c(Cl)ccc2c(=O)n(CC(=O)C[C@H]3NCCC[C@@H]3O)cnc12 [Example 2, 7-Chloro-3-{3-[(2R,3S)-3-hydroxypiperidin-2-yl]-2-oxopropyl}-8-methylquinazolin-4(3H)-one hydrochloride]
pIC50: 7.82

COc1ccc2c(=O)n(CC(=O)C[C@H]3NCCC[C@@H]3O)cnc2c1C [Example 4, 3-{3-[(2R,3S)-3-Hydroxypiperidin-2-yl]-2-oxopropyl}-7-methoxy-8-methylquinazolin-4(3H)-one hydrochloride]
pIC50: 7.31

O=C(C[C@H]1NCCC[C@@H]1O)Cn1cnc2cccc(F)c2c1=O [Example 5, 5-Fluoro-3-{3-[(2R,3S)-3-hydroxypiperidin-2-yl]-2-oxopropyl}quinazolin-4(3H)-one hydrochloride]
pIC50: 8.10

CCc1cc(C)c2ncn(CC(=O)C[C@H]3NCCC[C@@H]3O)c(=O)c2c1 [Example 6, 6-Ethyl-3-(3-((2R,3S)-3-hydroxypiperidin-2-yl)-2-oxopropyl)-8-methylquinazolin-4(3H)-one hydrochloride]
pIC50: 8.52

Cc1cc(OC(F)(F)F)cc2c(=O)n(CC(=O)C[C@H]3NCCC[C@@H]3O)cnc12 [Example 7, 3-{3-[(2R,3S)-3-Hydroxypiperidin-2-yl]-2-oxopropyl}-8-methyl-6-(trifluoromethoxy)quinazolin-4(3H)-one hydrochloride]
pIC50: 8.05

Cc1cc(S(C)(=O)=O)cc2c(=O)n(CC(=O)C[C@H]3NCCC[C@@H]3O)cnc12 [Example 8, 3-{3-[(2R,3S)-3-Hydroxypiperidin-2-yl]-2-oxopropyl}-8-methyl-6-methylsulfonyl)quinazolin-4(3H)-one hydrochloride]
pIC50: 8.05

Cc1cc(C(F)(F)F)cc2c(=O)n(CC(=O)C[C@H]3NCCC[C@@H]3O)cnc12 [Example 9, 3-{3-[(2R,3S)-3-Hydroxypiperidin-2-yl]-2-oxopropyl}-8-methyl-6-(trifluoromethyl)quinazolin-4(3H)-one hydrochloride]
pIC50: 8.15

Cc1cc(C(C)C)cc2c(=O)n(CC(=O)C[C@H]3NCCC[C@@H]3O)cnc12 [Example 10, 3-{3-[(2R,3S)-3-Hydroxypiperidin-2-yl]-2-oxopropyl}-6-isopropyl-8-methylquinazolin-4(3H)-one hydrochloride]
pIC50: 8.22

Cc1cc(C2CC2)cc2c(=O)n(CC(=O)C[C@H]3NCCC[C@@H]3O)cnc12 [Example 11, 6-Cyclopropyl-3-{3-[(2R,3S)-3-hydroxypiperidin-2-yl]-2-oxopropyl}-8-methylquinazolin-4(3H)-one hydrochloride]
pIC50: 8.22

Cc1cc(C#N)cc2c(=O)n(CC(=O)C[C@H]3NCCC[C@@H]3O)cnc12 [Example 12, 3-{3-[(2R,3S)-3-Hydroxypiperidin-2-yl]-2-oxopropyl}-8-methyl-4-oxo-3,4-dihydroquinazoline-6-carbonitrile hydrochloride]
pIC50: 7.77

CCc1cc(Br)cc2c(=O)n(CC(=O)C[C@H]3NCCC[C@@H]3O)cnc12 [Example 13, 6-Bromo-8-ethyl-3-{3-[(2R,3S)-3-hydroxypiperidin-2-yl]-2-oxopropyl}quinazolin-4(3H)-one hydrochloride]
pIC50: 8.22

CCc1cc(F)cc2c(=O)n(CC(=O)C[C@H]3NCCC[C@@H]3O)cnc12 [Example 14, 8-Ethyl-6-fluoro-3-(3-((2R,3S)-3-hydroxypiperidin-2-yl)-2-oxopropyl)quinazolin-4(3H)-one hydrochloride]
pIC50: 7.42

O=C(C[C@H]1NCCC[C@@H]1O)Cn1cnc2cccc(-c3cccc(F)c3)c2c1=O [Example 15, 5-(3-Fluorophenyl)-3-{3-[(2R,3S)-3-hydroxypiperidin-2-yl]-2-oxopropyl}quinazolin-4(3H)-one hydrochloride]
pIC50: 8.22

O=C(C[C@H]1NCCC[C@@H]1O)Cn1cnc2ccc(-c3cccc(F)c3)cc2c1=O [Example 16, 6-(3-Fluorophenyl)-3-{3-[(2R,3S)-3-hydroxypiperidin-2-yl]-2-oxopropyl}quinazolin-4(3H)-one hydrochloride]
pIC50: 8.00

O=C(C[C@H]1NCCC[C@@H]1O)Cn1cnc2ccc(-c3cccc(Cl)c3)cc2c1=O [Example 17, 6-(3-Chlorophenyl)-3-{3-[(2R,3S)-3-hydroxypiperidin-2-yl]-2-oxopropyl}quinazolin-4(3H)-one hydrochloride]
pIC50: 7.55

O=C(C[C@H]1NCCC[C@@H]1O)Cn1cnc2ccc(-c3cccc(C(F)(F)F)c3)cc2c1=O [Example 18, 3-{3-[(2R,3S)-3-Hydroxypiperidin-2-yl]-2-oxopropyl}-6-[3-(trifluoromethyl)phenyl]quinazolin-4(3H)-one hydrochloride]
pIC50: 7.40

Cc1cc(-c2cccc(F)c2)cc2c(=O)n(CC(=O)C[C@H]3NCCC[C@@H]3O)cnc12 [Example 19, 6-(3-Fluorophenyl)-3-{3-[(2R,3S)-3-hydroxypiperidin-2-yl]-2-oxopropyl}-8-methylquinazolin-4(3H)-one hydrochloride]
pIC50: 8.05

Cc1cc(-c2cccc(C(F)(F)F)c2)cc2c(=O)n(CC(=O)C[C@H]3NCCC[C@@H]3O)cnc12 [Example 20, 3-{3-[(2R,3S)-3-Hydroxypiperidin-2-yl]-2-oxopropyl}-8-methyl-6-[3-(trifluoromethyl)phenyl]quinazolin-4(3H)-one hydrochloride]
pIC50: 7.55

Cc1cc(-c2cccnc2)cc2c(=O)n(CC(=O)C[C@H]3NCCC[C@@H]3O)cnc12 [Example 21, 3-{3-[(2R,3S)-3-Hydroxypiperidin-2-yl]-2-oxopropyl}-8-methyl-6-(pyridin-3-yl)quinazolin-4(3H)-one dihydrochloride]
pIC50: 8.10

Cc1cc(-c2ccc(F)c(F)c2)cc2c(=O)n(CC(=O)C[C@H]3NCCC[C@@H]3O)cnc12 [Example 22, 6-(3,4-Difluorophenyl)-3-{3-[(2R,3S)-3-hydroxypiperidin-2-yl]-2-oxopropyl}-8-methylquinazolin-4(3H)-one hydrochloride]
pIC50: 7.82

Cc1cc(C2CCOCC2)cc2c(=O)n(CC(=O)C[C@H]3NCCC[C@@H]3O)cnc12 [Example 23, 3-{3-[(2R,3S)-3-Hydroxypiperidin-2-yl]-2-oxopropyl}-8-methyl-6-(tetrahydro-2H-pyran-4-yl)quinazolin-4(3H)-one hydrochloride]
pIC50: 7.92

Cc1cc(N2CCCC2)cc2c(=O)n(CC(=O)C[C@H]3NCCC[C@@H]3O)cnc12 [Example 24, 3-{3-[(2R,3S)-3-Hydroxypiperidin-2-yl]-2-oxopropyl}-8-methyl-6-(pyrrolidin-1-yl)quinazolin-4(3H)-one dihydrochloride]
pIC50: 7.85

O=C(C[C@H]1NCCC[C@@H]1O)Cn1cnc2cccc(C(F)(F)F)c2c1=O [Example 25, 3-{3-[(2R,3S)-3-Hydroxypiperidin-2-yl]-2-oxopropyl}-5-(trifluoromethyl)quinazolin-4(3H)-one hydrochloride]
pIC50: 8.00

O=C(C[C@H]1NCCC[C@@H]1O)Cn1cnc2cccc(-c3cccc(C(F)(F)F)c3)c2c1=O [Example 26, 3-{3-[(2R,3S)-3-Hydroxypiperidin-2-yl]-2-oxopropyl}-5-[3-(trifluoromethyl)phenyl]quinazolin-4(3H)-one hydrochloride]
pIC50: 7.89

O=C(C[C@H]1NCCC[C@@H]1O)Cn1cnc2cccc(-c3ccc(F)c(F)c3)c2c1=O [Example 27, 5-(3,4-Difluorophenyl)-3-{3-[(2R,3S)-3-hydroxypiperidin-2-yl]-2-oxopropyl}quinazolin-4(3H)-one hydrochloride]
pIC50: 8.22
